Measurements as given in patent publication US20250250582A1, “Plant Cells and Plants Modified to Increase Herbicide Resistance and Stress Tolerance and Methods of Using the Same” (The Board of Trustees of the University of Arkansas, priority 2018, published 2025).
“And” between values parts separate entries of the source, which are not always exact repeats. Equal entries are not always repeated.

Tests used:
[1] = tested on: multiple-resistant E. colona (ECO-R); test: RNA-sequencing differential gene expression, herbicide-treated vs nontreated ECO-R; conditions: ECO-R-T vs ECO-R-N, 24 h
Description: (§1) Pure-line generated seed of each accession were germinated in pots containing potting soil within a temperature/light controlled growth chamber set to a 14-hr day length, 33 C day temperature, and 24 C night time to simulate environmental conditions early in the rice growing season. A single plant was maintained in each of the pots and used for the treatments; two pots were used as individual biological replicates. […] Pots for each of the respective treatments were labeled as either ECO-R/S-T for the treated samples and ECO-R/S-N for the non-treated counterpart. To minimize the effect that the sprayer may play in the application, both plants of the ECO-R and ECO-S were treated at the same time. After approximately 30 minutes, allowing for the plants to dry, the treated and non-treated plants of both accessions were moved back into the growth chamber. Precisely 24-hours after application, the aboveground portion of each of the plants were removed and immediately frozen in liquid nitrogen to cease all biological function. Samples were then transferred to RNAlater™-ICE (Invitrogen, Carlsbad CA, USA) for shipment to the Clemson University Genomics Institute (CUGI), in Clemson, South Carolina.
(§2) RNA was extracted from the young leaf tissues of both replications for the ECO-R and ECO-S, T and N samples, at Clemson University. Total RNA was extracted with a kit according to the manufactures instructions. The extracted RNA was treated with DNase (Invitrogen, Calsbad, CA, USA) to remove any DNA contamination prior to further processing. The samples were prepared for sequencing by CUGI. For library preparation, the TruSeq Stranded Total RNA kit (Illumina Inc., San Diego, CA, USA) was used according to the instructions provided by the manufacturer to produce a paired-end library for sequencing. Ribosomal RNA was removed using target-specific oligonucleotides paired with rRNA removal beads, removing all cytoplasmic and mitochondrial rRNA that may result in poor quality results. RNA was fragmented and reverse transcribed to cDNA using random primers, followed by a second strand cDNA synthesis. Each fragment is then ligated with an additional ‘A’ and an adapter for sequencing. The PCR enriched product is then used to create the final cDNA library. All samples were sequenced on an Illumina Hiseq 2500 platform housed in the Holdings Cancer Center at the Medical University of South Carolina, Charleston, SC, USA. Samples, regardless of treatments or replication were ran across three lanes to reduce sequencing errors from the equipment. The resulting data were processed by CUGI.
(§3) A de novo transcriptome was assembled from the treatments described for this experiment as well as several treatments, which included herbicides profiled in ECO-R. The treatments were applied to both ECO-R and ECO-S samples with two replications as described previously. In total, 20 individual plants, from both the ECO-R and ECO-S accessions, as well as T and NT samples, were used for the assembly. The transcriptome was assembled using the Trinity RNA-Seq pipeline (Broad Institute, Cambridge, MA, USA). Raw data were assessed for quality using FastQC (Babraham Institute, Cambridge, UK) and then processed to remove adapter sequences and low quality bases using a sliding window method. The processed data were then rerun using FastQC to ensure high quality reads. Using the TrinityRNASeq 2.2.0 software, the samples were normalized, by replication, using a coverage size of 100 and kmer of 32. The normalized reads were then assembled as transcripts and genes using Trinity with the stranded library set as the default.

[2] = tested on: multiple-resistant E. colona (ECO-R); test: Herbicide resistance profile of ECO-R; type: in vivo, Echinochloa colona; conditions: data not shown
Description: Beginning in 2010, through the 2016 cropping cycle, Echinochloa spp. from throughout the rice producing counties of Arkansas, USA, located along the Mississippi River were sampled for a survey of the current status of herbicide resistance. Seeds were bulk sampled from plants that had matured in rice and soybean production fields, which had survived at least one herbicide application, were collected and sent to the University of Arkansas Altheimer Laboratory in Fayetteville for characterization and evaluation of herbicide resistance to common rice herbicides. […] From this screening program, two populations of E. colona were selected for use in this experiment. […] To establish inbred and homozygous accessions for the experiment, a single plant, verified as resistant/susceptible of ECO-R and ECO-S were grown in isolation to produce seed for further experiments.
Accession source and population profiling. From 2010 to 2016, the University of Arkansas weed physiology group has been collecting putative herbicide-resistant Echinochloa populations from rice production fields throughout the state of Arkansas. […] Collections took place in the late summer to early fall prior to rice harvest; these accessions were bulk sampled by in-field location and farm, with field histories collected when possible. All of the samples were submitted to the University of Arkansas Altheimer Laboratory for assessment of their resistance profile and characterized according to their species. […] Populations with unique profiles and of interest for further research were then grown in isolation to produce pureline seed. […] Another accession, E. colona susceptible (ECO-S), was also selected and grown in isolation. This accession was selected because of its similar cropping history and geographic location, as well as its high level of susceptibility to the herbicides of interest.

[3] = tested on: ECO-R compared to ECO-S after herbicide treatment; test: RNA-sequencing differential gene expression, ECO-R-T compared to ECO-S-T; conditions: ECO-R-T vs ECO-S-T, 24 h
Description: as §1, §2, §3

[4] = tested on: susceptible E. colona (ECO-S); test: RNA-sequencing differential gene expression, herbicide-treated vs nontreated ECO-S; conditions: ECO-S-T vs ECO-S-N, 24 h
Description: as §1, §2, §3

[5] = tested on: susceptible E. colona standard; test: Determination of resistance level (visual injury), susceptible plants; conditions: 2 X dose, visual 3 wk after treatment
[6] = tested on: resistant Echinochloa species; test: Determination of resistance level (visual injury), resistant accessions; type: in vivo, E. colona and E. crus-galli; conditions: 2 X dose, visual 3 wk after treatment; propanil range excludes ECO187
Description: The experiment was repeated once.

## CP(=O)(O)CCC(N)C(=O)O (stereo not shown) [glufosinate]
[1]; induced
  glutamine synthetase (one form) fold change: 7.5 fold
  glutamine synthetase cytosolic isozyme 1-3 fold change: 8.2 fold
[2]
  level of resistance: ~2 × field dose

## C[C@@H](Oc1ccc(Oc2ccc(C#N)cc2F)cc1)C(=O)O [cyhalofop]
[2]
  level of resistance: ~2 × field dose

## O=C(O)c1c(Cl)ccc2cc(Cl)cnc12 [quinclorac]
[1]
  ABCD2 fold change: −9.2 fold
  ACC synthase fold change: 6.3 fold
  UGT73D1 fold change: 5.3 fold
  UGT73E1 fold change: 2.6 fold
  UGT75D1 fold change: 7.3 fold and ~9 fold
  cytochrome c oxidase proteins fold change: −8.4 fold
[1]; repressed
  ATP synthase subunit(s) fold change: up to −12.3 fold
[1]; repressed up to
  acetyl-CoA and acetyl-CoA 2 proteins fold change: up to −10.2 fold
  pyruvate dehydrogenase subunits fold change: ≤ −12 fold
[3]
  ABA receptor PYL5 fold change: −4.4 fold
  ACC synthase fold change: 9 fold
  Alanine aminotransferase 2 Fold Change: 4 fold
  Aspartate aminotransferase, chloroplastic Fold Change: 4 fold
  Beta-amylase 1, chloroplastic Fold Change: 4 fold
  Branched-chain-amino-acid aminotransferase 5, chloroplastic Fold Change: 4 fold
  CYP71A1 Fold Change: 3 fold and 5 fold and 6 fold
  CYP71A4 Fold Change: 5.6 fold and 6 fold
  CYP71A8 Fold Change: 4 fold
  CYP71A9 Fold Change: −6 fold
  CYP72A15 Fold Change: −7 fold
  CYP89A2 Fold Change: −10 fold
  CYP709B2 Fold Change: 6 fold and 7 fold and 11 fold
  Desumoylating isopeptidase 1 Fold Change: 4 fold
  Fructose-bisphosphate aldolase, chloroplastic Fold Change: 4 fold
  GSTU20 Fold Change: 6 fold
  Haloacid dehalogenase-like hydrolase domain-containing protein 3 Fold Change: 4 fold
  IAA-amino acid hydrolase ILR1-like 4 Fold Change: −6 fold
  Nudix hydrolase 21, chloroplastic Fold Change: 3 fold and 4 fold
  Probable xyloglucan endotransglucosylase/hydrolase protein 28 Fold Change: −4 fold
  Prolyl endopeptidase Fold Change: 8 fold and 9 fold and 15 fold
  Pyrimidine-specific ribonucleoside hydrolase RihA Fold Change: −9 fold
  Serine carboxypeptidase-like 42 Fold Change: −5 fold
  UGT73D1 fold change: 8 fold
  UGT73E1 fold change: 5 fold
  UGT74D1 Fold Change: −4 fold
  UGT75D1 fold change: 8.7 fold and 9 fold
  UGT88A1 Fold Change: 4 fold
[2]
  level of resistance: > 32 × field dose
[4]
  ABCB5 fold change: −6.5 fold
  ABCC10 fold change: −6.1 fold
  ACC oxidase 1 fold change (two forms): 2.2 fold and 2.8 fold
  ACC oxidase fold change: −2.8 fold
  ACC oxidase homolog 3 fold change: −2.2 fold
  ACC synthase fold change: −2.7 fold
  ALPL1 fold change, five repressed transcripts: −12 to −1.4 fold
  EIN2 fold change: 3.9 fold
  RAP2-2 fold change: 1.9 fold
  VP14 (9-cis-epoxycarotenoid dioxygenase) fold change: −6.4 fold
[4]; as much as
  ALPL1 fold change, three induced transcripts: ≤ 3.5 fold
[5]
  susceptible plants killed: 100%
[6]
  injury of resistant Echinochloa species: 2-65%
